Reference: ChEMBL document CHEMBL1201862, “PubChem BioAssay data set” (2004)
Activity calls are given as the source filed them.

What was measured:
Protein skinhead-1 = molecular target: T1, Protein skinhead-1 (Caenorhabditis elegans, UniProt P34707); type: functional
T1 sequence (P34707 whole entry): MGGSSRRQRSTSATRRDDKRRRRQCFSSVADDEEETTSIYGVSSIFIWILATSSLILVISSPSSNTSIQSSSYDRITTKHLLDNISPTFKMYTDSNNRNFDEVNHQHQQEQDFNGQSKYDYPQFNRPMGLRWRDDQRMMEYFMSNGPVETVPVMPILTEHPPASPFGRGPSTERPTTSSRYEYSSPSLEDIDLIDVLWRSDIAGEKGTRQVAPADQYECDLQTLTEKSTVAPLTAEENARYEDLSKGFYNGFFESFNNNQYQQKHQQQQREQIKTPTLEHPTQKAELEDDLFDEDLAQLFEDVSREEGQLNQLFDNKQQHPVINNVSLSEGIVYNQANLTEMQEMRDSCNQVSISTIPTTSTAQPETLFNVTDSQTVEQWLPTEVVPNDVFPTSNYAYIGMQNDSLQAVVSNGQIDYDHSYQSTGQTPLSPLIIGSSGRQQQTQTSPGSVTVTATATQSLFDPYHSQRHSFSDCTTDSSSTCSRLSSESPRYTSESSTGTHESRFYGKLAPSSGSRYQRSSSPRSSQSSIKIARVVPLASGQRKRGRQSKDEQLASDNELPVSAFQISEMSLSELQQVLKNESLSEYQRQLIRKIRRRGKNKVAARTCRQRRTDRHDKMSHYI

[1] = growth suppression of PTEN-null colon cells, dose response, cell-based, HCT116 PTEN knockout (AID 1047); type: functional;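 further: HCT116 colon tumor cells with PTEN knocked out; cells exposed to compound for 60 hours before readout; potency for loss of cell viability measured by luminescence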
[2] = growth suppression of beta-catenin-knockout colon cells, dose response, cell-based, HCT116, human colon tumor (AID 1045); type: functional;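 further: HCT116 colon tumor cells with beta catenin knocked out; cells exposed to compound for 60 hours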
[3] = molecular target: T2, Corticotropin-releasing factor receptor 2/Corticotropin-releasing factor-binding protein (Homo sapiens, UniProt P24387+Q13324); assay: Dose Response confirmation of uHTS hits for small molecule antagonists of the CRF-binding protein and CRF-R2 receptor complex.; type: functional; details: read-out: IC50_Mean
T2 sequence (Q13324 whole entry): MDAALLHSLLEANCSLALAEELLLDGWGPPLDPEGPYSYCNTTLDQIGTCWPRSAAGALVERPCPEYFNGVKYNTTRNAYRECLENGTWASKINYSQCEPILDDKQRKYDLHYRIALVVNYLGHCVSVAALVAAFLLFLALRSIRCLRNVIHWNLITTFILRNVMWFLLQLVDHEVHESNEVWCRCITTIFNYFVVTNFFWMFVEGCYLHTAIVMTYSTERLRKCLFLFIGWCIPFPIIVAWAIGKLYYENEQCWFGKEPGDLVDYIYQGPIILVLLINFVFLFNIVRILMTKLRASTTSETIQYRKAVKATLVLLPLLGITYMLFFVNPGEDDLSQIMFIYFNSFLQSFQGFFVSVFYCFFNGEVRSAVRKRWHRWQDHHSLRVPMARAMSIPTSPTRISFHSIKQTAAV
T2 sequence (P24387 whole entry): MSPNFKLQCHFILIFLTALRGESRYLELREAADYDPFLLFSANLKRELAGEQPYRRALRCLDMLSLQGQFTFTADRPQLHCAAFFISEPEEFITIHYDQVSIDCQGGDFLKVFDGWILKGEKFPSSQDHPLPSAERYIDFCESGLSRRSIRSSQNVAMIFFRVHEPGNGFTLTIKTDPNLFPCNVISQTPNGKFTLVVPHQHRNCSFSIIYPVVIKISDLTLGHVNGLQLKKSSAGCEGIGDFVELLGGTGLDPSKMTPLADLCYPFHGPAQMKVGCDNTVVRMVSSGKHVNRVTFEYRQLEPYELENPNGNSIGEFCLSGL

[4] = molecular target: T2, Corticotropin-releasing factor receptor 2/Corticotropin-releasing factor-binding protein; assay: activators of CRF receptor 2 with binding protein – uHTS hits, confirmation (AID 602473); type: functional; details: read-out: EC50_Mean
[5] = test system: Streptococcus sp. 'group A'; assay: growth inhibition of control SK(-) GAS strain, dose response, counter-screen for streptokinase expression inhibitor project, luminescence, kanamycin, BacTiterGlo, confirmation (AID 1900); type: functional, organism-based
Streptokinase A = molecular target: T3, Streptokinase A (Streptococcus pyogenes serotype M1, UniProt P10520); assay: S. pyogenes streptokinase expression inhibitors, potency, dose response, plasminogen activation absorbance, OD405 (AID 1914); type: functional, Streptococcus pyogenes M1 GAS;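 further: secreted streptokinase activity via plasminogen activation per viability signal from cell pellet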
T3 sequence (P10520 whole entry): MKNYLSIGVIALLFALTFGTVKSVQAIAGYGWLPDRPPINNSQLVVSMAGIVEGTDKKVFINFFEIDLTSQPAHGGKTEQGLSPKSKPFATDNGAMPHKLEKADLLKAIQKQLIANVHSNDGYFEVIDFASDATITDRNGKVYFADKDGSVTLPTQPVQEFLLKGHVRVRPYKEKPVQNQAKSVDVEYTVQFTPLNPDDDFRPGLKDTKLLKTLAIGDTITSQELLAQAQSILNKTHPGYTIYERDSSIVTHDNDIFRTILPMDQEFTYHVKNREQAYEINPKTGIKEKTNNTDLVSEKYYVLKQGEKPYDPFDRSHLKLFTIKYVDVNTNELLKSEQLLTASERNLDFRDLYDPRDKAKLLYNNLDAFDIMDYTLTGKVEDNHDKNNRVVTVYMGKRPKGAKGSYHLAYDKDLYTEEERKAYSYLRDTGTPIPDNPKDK

Streptococcus = assay: Group A Streptococcus viability loss, dose response, counter-screen for streptokinase expression inhibitor project, luminescence, BacTiterGlo (AID 1915); type: functional, organism-based;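 further: potency for reduction of bacterial viability or growth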
Cytochrome P450 2D6 = Cytochrome P450 2D6 (Homo sapiens, UniProt P10635);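 further: CYP2D6 member of a cytochrome P450 panel assay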
Sequence of Cytochrome P450 2D6 (P10635 whole entry): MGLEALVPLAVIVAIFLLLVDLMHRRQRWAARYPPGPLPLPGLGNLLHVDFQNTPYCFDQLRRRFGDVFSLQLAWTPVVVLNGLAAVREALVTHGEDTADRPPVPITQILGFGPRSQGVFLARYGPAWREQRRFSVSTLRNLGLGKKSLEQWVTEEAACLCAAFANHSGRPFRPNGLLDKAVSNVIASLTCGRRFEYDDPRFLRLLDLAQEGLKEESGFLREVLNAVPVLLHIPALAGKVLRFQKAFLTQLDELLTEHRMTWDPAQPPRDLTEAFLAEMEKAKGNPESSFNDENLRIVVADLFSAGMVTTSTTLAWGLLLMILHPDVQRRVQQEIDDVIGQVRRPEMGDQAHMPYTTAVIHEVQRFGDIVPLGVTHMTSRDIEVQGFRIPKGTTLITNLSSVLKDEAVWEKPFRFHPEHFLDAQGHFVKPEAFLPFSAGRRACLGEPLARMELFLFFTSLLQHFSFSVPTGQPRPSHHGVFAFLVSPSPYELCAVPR

Cytochrome P450 1A2 = molecular target: T4, Cytochrome P450 1A2 (Homo sapiens, UniProt P05177);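 further: PubChem cytochrome P450 panel assay, CYP1A2 panel member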
T4 sequence (P05177 whole entry): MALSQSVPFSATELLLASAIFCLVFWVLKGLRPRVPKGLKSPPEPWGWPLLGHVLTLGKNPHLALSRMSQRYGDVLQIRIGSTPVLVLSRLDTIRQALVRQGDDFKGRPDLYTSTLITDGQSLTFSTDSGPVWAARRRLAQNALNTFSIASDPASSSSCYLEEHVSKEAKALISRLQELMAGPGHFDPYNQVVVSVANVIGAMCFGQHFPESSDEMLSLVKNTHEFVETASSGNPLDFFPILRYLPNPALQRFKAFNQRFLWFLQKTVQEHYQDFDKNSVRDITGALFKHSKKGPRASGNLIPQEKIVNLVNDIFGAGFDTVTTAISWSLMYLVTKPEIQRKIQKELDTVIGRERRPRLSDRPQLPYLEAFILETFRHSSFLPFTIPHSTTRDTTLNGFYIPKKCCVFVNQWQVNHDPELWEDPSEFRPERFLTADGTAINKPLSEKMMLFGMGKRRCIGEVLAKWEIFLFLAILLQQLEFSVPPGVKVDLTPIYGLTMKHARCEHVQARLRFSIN

[6] = inhibitors of intracellular T. cruzi replication, confirmation, NIH3T3 host cells, beta-gal luminescence (AID 2044); type: functional, cell-based;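 further: intracellular parasites grown in NIH/3T3 mouse fibroblasts as host cells; luminescent beta-galactosidase reporter signal from transgenic T. cruzi replicating inside host cells; inhibitors lower the luminescence signal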
[7] = cytotoxicity toward NIH3T3 fibroblasts, dose response, counter-screen, cell-based, ATP luminescence, mouse fibroblasts (AID 2010); type: functional;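 further: cells exposed to compound for about 90 hours before reading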
[8] = inhibitors of HIV Env-driven cell fusion, dose response, cherry-pick (AID 652057); type: functional, cell-based
[9] = inhibitors of clade B AD8 Env fusion, dose response, cell-based, cherry-pick (AID 652062); type: functional;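 further: luciferase signal from cell-cell fusion driven by HIV-1 clade B AD8 Env; potency is for inhibitors of fusion seen as a drop in luminescence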
[10] = Luminescence Cell-Based Dose Retest to Confirm Inhibitors of Cancer Stem Cells. [Related pubchem assays (depositor defined):AID2717, AID2721]; type: functional; details: Homo sapiens
Cytochrome P450 3A4 = Cytochrome P450 3A4 (Homo sapiens, UniProt P08684);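 further: CYP3A4 tested as one member of a cytochrome P450 panel screen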
Sequence of Cytochrome P450 3A4 (P08684 whole entry): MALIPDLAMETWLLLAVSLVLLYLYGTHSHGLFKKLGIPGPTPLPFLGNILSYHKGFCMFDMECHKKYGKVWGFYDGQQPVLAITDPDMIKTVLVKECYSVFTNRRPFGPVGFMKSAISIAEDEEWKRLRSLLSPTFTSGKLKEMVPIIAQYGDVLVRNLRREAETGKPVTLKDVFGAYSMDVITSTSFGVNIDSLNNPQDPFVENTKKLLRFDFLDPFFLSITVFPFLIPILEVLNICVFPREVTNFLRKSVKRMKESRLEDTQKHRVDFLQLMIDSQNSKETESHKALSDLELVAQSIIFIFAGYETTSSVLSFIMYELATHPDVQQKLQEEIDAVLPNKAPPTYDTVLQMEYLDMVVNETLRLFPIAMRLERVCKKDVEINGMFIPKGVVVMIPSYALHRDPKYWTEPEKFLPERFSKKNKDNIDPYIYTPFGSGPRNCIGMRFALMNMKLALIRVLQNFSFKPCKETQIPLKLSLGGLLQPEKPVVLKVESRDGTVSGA

Cytochrome P450 2C19 = Cytochrome P450 2C19 (Homo sapiens, UniProt P33261); assay: Cytochrome panel assay with activity outcomes. Panel member name: p450-cyp2c19 Compounds with AC50 equal or less than 10 uM are considered active; type: functional; details: read-out: AC50
Sequence of Cytochrome P450 2C19 (P33261 whole entry): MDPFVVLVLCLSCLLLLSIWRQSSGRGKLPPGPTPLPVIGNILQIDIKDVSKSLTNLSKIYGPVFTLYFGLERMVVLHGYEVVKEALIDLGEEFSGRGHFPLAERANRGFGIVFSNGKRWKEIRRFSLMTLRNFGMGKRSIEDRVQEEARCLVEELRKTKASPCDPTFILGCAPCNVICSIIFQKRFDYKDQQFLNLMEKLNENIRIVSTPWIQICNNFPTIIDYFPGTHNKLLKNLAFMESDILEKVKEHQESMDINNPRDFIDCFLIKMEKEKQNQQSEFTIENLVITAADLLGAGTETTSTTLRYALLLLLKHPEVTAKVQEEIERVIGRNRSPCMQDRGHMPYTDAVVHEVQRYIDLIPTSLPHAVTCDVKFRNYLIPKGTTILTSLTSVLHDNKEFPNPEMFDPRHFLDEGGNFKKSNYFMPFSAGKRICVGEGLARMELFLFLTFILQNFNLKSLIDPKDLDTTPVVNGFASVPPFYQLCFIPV

Cytochrome P450 2C9 = Cytochrome P450 2C9 (Homo sapiens, UniProt P11712)
Sequence of Cytochrome P450 2C9 (P11712 whole entry): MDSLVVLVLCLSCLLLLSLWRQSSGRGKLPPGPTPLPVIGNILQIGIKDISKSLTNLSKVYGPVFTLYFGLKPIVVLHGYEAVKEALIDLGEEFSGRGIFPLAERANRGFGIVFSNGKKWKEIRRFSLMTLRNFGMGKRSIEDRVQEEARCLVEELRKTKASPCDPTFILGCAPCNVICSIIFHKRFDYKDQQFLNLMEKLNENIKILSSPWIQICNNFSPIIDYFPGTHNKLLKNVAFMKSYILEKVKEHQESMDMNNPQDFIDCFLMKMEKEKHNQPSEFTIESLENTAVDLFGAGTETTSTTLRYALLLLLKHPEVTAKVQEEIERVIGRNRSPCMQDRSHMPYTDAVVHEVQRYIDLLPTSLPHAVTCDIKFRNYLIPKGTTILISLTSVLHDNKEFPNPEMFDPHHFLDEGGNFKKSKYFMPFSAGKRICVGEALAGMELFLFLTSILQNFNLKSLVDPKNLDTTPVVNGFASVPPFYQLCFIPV

CN1CCC(N(C)CC(=O)Nc2ccccc2N2CCOCC2)CC1
IC50 (Protein skinhead-1): > 100 µM (inactive)

COc1ccc(-c2c3c(nc4sc5c(Cl)nc(C)nc5c24)CCC3)cc1
EC50 [1]: 4.46 µM (active) | EC50 [2]: 1.59 µM (active)

COc1ccc(S(=O)(=O)N(c2onc(C)c2Cl)S(=O)(=O)c2ccc(OC)cc2)cc1
IC50 [3]: > 47.1 µM (inactive) | EC50 [4]: > 53 µM (inactive)

O=C(CCc1nnc2ccc(NCc3ccco3)nn12)N1CCN(c2ccccc2F)CC1
IC50 [3]: > 47.1 µM (inactive) | EC50 [4]: > 53 µM (inactive)

Cc1ccc(NS(=O)(=O)c2cccc3nsnc23)cc1
IC50 [3]: > 47.1 µM (inactive) | EC50 [4]: > 53 µM (inactive)

CN(/N=C/c1ccc(Cl)cc1Cl)c1ncc(Cl)cc1C(F)(F)F
EC50 [5]: 16.9 µM (active) | EC50 (Streptokinase A): 21.2 µM (active) | EC50 (Streptococcus): > 150 µM (not active) | IC50 [3]: > 47.1 µM (inactive) | EC50 [4]: > 53 µM (inactive)

CO[C@H]1C=C2CCN(C)[C@@H]2[C@@H]2c3cc4c(cc3C(=O)O[C@H]21)OCO4
AC50 (Cytochrome P450 2D6): 10 µM (inconclusive) | AC50 (Cytochrome P450 1A2): 12.6 µM (inconclusive)

COc1cnc(SCc2ccc(Cl)cc2)nc1Cl
AC50 (Cytochrome P450 2D6): 17.8 µM (inconclusive)

COc1ccc(Cl)cc1C(=O)Nc1ccccc1N1CCCCC1
IC50 (Protein skinhead-1): > 100 µM (inactive)

Cc1cccc(N(CC(O)CON=C2c3ccccc3-c3ccccc32)S(C)(=O)=O)c1 (stereo not given)
EC50 [6]: 3.22 µM (active) | EC50 [1]: 28.8 µM (active) | EC50 [7]: > 60 µM (not active) | EC50 [2]: 29.6 µM (active)

C[C@H]1CN([C@@H](C)CO)C(=O)c2ccccc2-c2ccccc2CO[C@H]1CN(C)Cc1cccc(F)c1
AC50 [8]: < 0.26 µM (active) | AC50 [9]: 0.416 µM (active)

CCc1cc2cc(C)cc(C)c2nc1SCC(=O)N1CCN(C(=O)c2ccco2)CC1
AC50 [10]: 12.8 µM (active) | IC50 [3]: > 47.1 µM (inactive) | EC50 [4]: > 53 µM (inactive)

CN(C)c1ncc2nc(CCc3ccccc3)c(=O)n(C3CC3)c2n1
AC50 (Cytochrome P450 2D6): 10 µM (inconclusive) | AC50 (Cytochrome P450 3A4): 10 µM (inconclusive)

Cc1cccc2cc(C#N)c(N3CCCC3)nc12
IC50 (Protein skinhead-1): > 100 µM (inactive)

O=C(Nc1ccc(OC(F)(F)F)cc1)c1n[nH]c(Cn2cncn2)n1
AC50 (Cytochrome P450 2C19): 2.51 µM (inconclusive) | AC50 (Cytochrome P450 2D6): 20 µM (inconclusive) | AC50 (Cytochrome P450 3A4): 15.8 µM (inconclusive) | AC50 (Cytochrome P450 2C9): 11.2 µM (inconclusive)

CCNC(=O)C[C@H]1CC[C@@H]2[C@@H](COc3ccc(NC(=O)Nc4cccc(OC)c4)cc3C(=O)N2C)O1
AC50 [8]: 37.7 µM (active) | AC50 [9]: 50.2 µM (active)

FC(F)(F)c1cccc(-c2nc(-c3ccncc3)no2)c1
IC50 (Protein skinhead-1): > 100 µM (inactive)

O=[N+]([O-])c1cccc(COc2ccc(CN3CCOCC3)cc2)c1
IC50 [3]: > 47.1 µM (inactive) | EC50 [4]: > 53 µM (inactive)

CCOc1ccc(NC(=O)C2CCCN(S(=O)(=O)c3c(C)nn(C)c3C)C2)cc1 (stereo not given)
IC50 (Protein skinhead-1): > 100 µM (inactive)

CC(C)CC1CC(=O)OC1(C)C(=O)CSc1nc2ccccc2s1 (stereo not given)
AC50 (Cytochrome P450 2D6): 3.55 µM (inconclusive)

COc1cc(C[C@H](C)[C@H](C)Cc2ccc3c(c2)OCO3)ccc1O [AUSTROBAILIGNAN 6]
AC50 [10]: 5.23 µM (active) | IC50 [3]: > 47.1 µM (inactive) | EC50 [4]: > 53 µM (inactive)

CCOC(=O)c1c(NC(=O)c2cc3n(n2)C(C(F)(F)F)CC(c2cccs2)N3)sc(C)c1C (stereo not given)
EC50 [1]: 2.45 µM (active) | EC50 [2]: 2.59 µM (active)

Cc1ccc(C(=O)/C=C/c2ccc(Br)cc2)o1
EC50 [1]: 8.44 µM (active) | EC50 [2]: 6.62 µM (active)

Cc1ccc(-c2nc(CSCC(=O)N3CCN(c4ccccn4)CC3)c(C)o2)cc1
EC50 [1]: 35 µM (active) | EC50 [2]: 17.1 µM (active)

N#Cc1c(NC(=O)C(F)(F)F)sc2c3c(=O)c4ccccc4c(=O)c=3oc3ccccc3c12
AC50 (Cytochrome P450 2D6): 0.794 µM (inconclusive) | AC50 (Cytochrome P450 3A4): 3.98 µM (inconclusive)

COc1ccc(CN2CCCC(C(=O)c3cccc(Cl)c3)C2)cc1 (stereo not given)
IC50 (Protein skinhead-1): > 100 µM (inactive)

N#CCC(=O)Nc1ccc(C(=O)OCC(=O)NNC(=O)c2cccs2)cc1
IC50 [3]: > 47.1 µM (inactive) | EC50 [4]: > 53 µM (inactive)

CCSc1nnc(-c2ccc(Cl)cc2Cl)o1
IC50 (Protein skinhead-1): 29.7 µM (active)

c1ccc(-c2noc(CN3CCN(c4cnccn4)CC3)n2)cc1
IC50 [3]: > 47.1 µM (inactive) | EC50 [4]: > 53 µM (inactive)

O=C(c1ccc(COc2ccc(F)cc2)o1)n1cccn1
AC50 (Cytochrome P450 2D6): 0.00562 µM (inconclusive)

FC(F)(F)C1=CC(c2ccc(Cl)cc2)=NCCN1
IC50 (Protein skinhead-1): > 100 µM (inactive)

COCCN1C(=O)CC(NNC(=O)c2ccc(S(=O)(=O)N3CCCC3)cc2)C1=O (stereo not given)
IC50 (Protein skinhead-1): > 100 µM (inactive)

Cc1ccc(CCNC(=O)c2coc3nc4ccccc4nc23)cc1
IC50 (Protein skinhead-1): > 100 µM (inactive)

O=C(OC[C@@H](O)CO)c1ccccc1Nc1ccnc2cc(Cl)ccc12
AC50 (Cytochrome P450 2C19): 3.98 µM (inconclusive) | AC50 (Cytochrome P450 2D6): 12.6 µM (inconclusive) | AC50 (Cytochrome P450 2C9): 15.8 µM (inconclusive)

CCCCCC1=C2CNC(C)(C(=O)OC)C=C2C(C)C1=O (stereo not given)
AC50 (Cytochrome P450 2D6): 25.1 µM (inconclusive) | AC50 (Cytochrome P450 1A2): 25.1 µM (inconclusive) | AC50 (Cytochrome P450 2C9): 31.6 µM (inconclusive)

O=C(Nc1nc2ccc(Cl)cc2s1)c1ccc(N2CCCCC2)c([N+](=O)[O-])c1
EC50 [1]: 12.2 µM (active) | EC50 [2]: 13.5 µM (active)
